In a melting point compilation (Tetko et al.; mined from patent text by program, amines drawn as free bases though some values may be those of a salt):

SMILES	melting point [°C]
CC(C(=O)O)c1ccc2oc(-c3ccccc3)nc2c1 (stereo not given)	177 to 179
Cc1nc(OCc2cccc(C(F)(F)F)c2)c(C(=O)Nc2ccccc2)s1	113
CC1(C)C(=O)Oc2ccc3cc([N+](=O)[O-])c(Cn4cncn4)cc3c21	183 to 185
Oc1ccc(-c2cnc(NC(=S)Cc3ccccc3)c(Cc3ccccc3)n2)cc1	195 to 198
O=C(CCCCN1CCCCC1)c1ccc2c(c1)Cc1cc(C(=O)CCCCN3CCCCC3)ccc1S2	98.5 to 99.5
O=c1cc(-c2ccccc2)sc2c1[nH]c1ccccc12	271 to 272
CCC(C)(C)c1cc(C(=O)COc2ccc(C=O)cc2OC)cc(C(C)(C)CC)c1O	106 to 107
Cc1c(C)c2c(c(C)c1OCc1ccccc1)CCC(C)(C(=O)O)O2 (stereo not given)	154 to 155
Nc1ccc(C(=S)SCCO)cc1	87.5 to 89.5
CCCc1nc2c(N)nc3c(c2n1CCOCCS(C)(=O)=O)CCCC3	153 to 155
CCOC(=O)c1nn(-c2ccc(Br)cc2)c(=O)c(C#N)c1C	174 to 176
O=C(NCCC(O)(c1ccccc1)c1ccccc1)c1ccccc1	145 to 146
CCOC(=O)c1cccc(N(CC(=O)OC(C)(C)C)C(=O)CNC(=O)Nc2cccc(C)c2)c1	71
CCCC(CCC)n1nnc2c(Nc3c(Br)cc(OC)cc3OC)nc(C)cc21	140 to 141
O=C(c1ccccc1)c1ccc2nc(-c3ccc(Br)o3)[nH]c2c1	167 to 172
N#Cc1c(N2CCN(C(=O)c3cccs3)CC2)c2cc(F)cnc2n(Cc2cccc(F)c2)c1=O	137
O=c1cc(-c2ccncn2)nc2n1CCCCC2C1CC1 (racemic)	139 to 140
O=C1NCc2cnc(Nc3ccc(N4CCC(CCCO)CC4)cc3)nc2N1C1CCCC1	> 230
CC1(c2ccc(F)cc2)OC(C=Cc2ccc(C#N)cc2)=CC1=O (stereo not given)	140 to 142
CC(=O)NCC1CC(c2cc(F)c(N3CCN(C(=O)C4COc5ccccc5O4)CC3)c(F)c2)=NO1 (single isomer, unassigned; (-))	158 to 159
CC(=O)NC[C@H](O)CC(=O)NN	178
O=C(O)CCCCCCCSc1nc(-c2ccccc2)c(-c2ccccc2)[nH]1	160 to 162
CC[C@H](COCC#Cc1ccccc1)n1cnc2c(N)nc3ccccc3c21	63 to 67
COc1cc(OC)c2c(=O)[nH]c(-c3ccc(OCC[N+]4([O-])CCCC4)c(-c4ccc(S(C)(=O)=O)cc4)n3)nc2c1	167 to 170

SMILES	melting point [°C]
COc1cc(S(C)(=O)=O)ccc1-c1nc(C)c(-c2cccnc2)[nH]1	115 to 118
CN1C=NN(c2cccc(N)c2)N1	93 to 95
CCCCCCCCN1C(=O)NC2(CC(C)(CC)NC(C)(CC)C2C)C1=O (stereo not given)	65 to 67
CCOC(=O)C(Cc1ccc2ccccc2c1Br)C(=O)OCC	60 to 65
O=C(Cc1ccc(O)cc1)Nc1c(-c2cc(Cl)ccc2O)c2cc(C(F)(F)F)ccc2[nH]c1=O	218 to 221
CC(C)NCC(O)c1cc(Cl)c(N)c(C(F)(F)F)c1 (stereo not given)	104 to 106
NCc1cc(-c2csc(N=C(N)N)n2)ccn1	> 210
Cc1cccc(Cn2c(NC3CCN(CCNc4ncccn4)CC3)nc3cccnc32)n1	187
O=C1c2ccc(SCc3ccccc3)cc2CC1Br (stereo not given)	88
CCCN1CCN(c2cc3ccccc3c(=O)[nH]2)CC1	208 to 209
Cc1nn2c(c1C(N)=O)NCCC2	234 to 236
COc1ccc(-c2nc(C)c(NC(C)=O)[nH]2)cc1	202 to 204
CN(C)c1ncc2cc(-c3c(Cl)cccc3Cl)c(=O)n(C)c2n1	256 to 258
CCCC(C(=O)N(C)C)n1cc(C)c(-c2ccccc2)n1 (stereo not given)	84 to 86
COC(=O)c1sc(C(F)(F)F)cc1OCc1ccccc1	52 to 53.5
O=C(O)c1cccc(NC(=O)C(CS)Cc2cccnc2)c1 (stereo not given)	94 to 97
CC1=Nc2ccc(S(=O)(=O)NC3CCCCC3)cc2S(=O)(=O)N1	239 to 242
CC(=O)OC(OC(C)=O)c1ccc(C(OC(C)=O)(C(F)(F)F)C(F)(F)F)cc1	93 to 94.6
CN(CC#Cc1ccccc1)[C@H]1CC[C@H](c2ccc3[nH]c(=O)oc3c2)CC1	249 to 252
Cc1nnc(-c2ccccc2)c2nc(OCc3ncnn3C)c(C3CCCC3)n12	137
COCCn1cc(C(=O)C(F)(F)F)c2c(Cl)cccc21	57 to 59
COc1cc(CNC(C)=O)c(Br)cc1O	> 300
OC(CCl)(c1ccccc1)c1ccc(-c2ccccc2)cc1 (stereo not given)	94
CCCCCCCCCC(=O)Nc1ccc(S(=O)(=O)Nc2nnc(CC(=O)O)s2)cc1	190 to 191

SMILES	melting point [°C]
Cc1ccc(C2COc3cc(O)ccc3C2c2ccc(OCCN3CCCC3)cc2)cc1 (stereo not given)	161 to 165
O=C(O)[C@@H]1CS[C@@H](CS)C1	54.3 to 55.9
Cc1ccc(Oc2c([N+](=O)[O-])cc(C(=O)O)cc2S(N)(=O)=O)cc1	236
O=C(c1ccccc1)c1cc2c3ccccc3[nH]c(=O)n2n1	308 to 311
Cc1ccc(S(=O)(=O)N(C)SSN(C)S(=O)(=O)c2ccc(C)cc2)cc1	90 to 94
CC(C)n1cc(-c2nc(C#N)c(N)nc2-c2ccc(F)c(F)c2)ccc1=O	180
COC(=O)c1sc2ccc(NC=O)cc2c1N	202 to 204
CCN(CC)C(=O)CCc1nc(-c2ccccc2)cc2ccccc12	58
CC(c1oc2ccccc2c(=O)c1-c1cccc(F)c1)n1ncc2c(Cl)ncnc21 (stereo not given)	197 to 201
O=C1c2ccccc2C(=O)N1CC1CC(=O)N(Cc2ccccc2)c2ccccc2N1 (stereo not given)	127 to 130
CCCS(=O)(=O)Oc1ccc(-c2c(C)c(C(=O)NN3CCCCC3)nn2-c2ccc(Cl)cc2Cl)cc1	190
Cc1ccc2cccc(OCc3c(Cl)ccc(S(=O)(=O)N(C)C(C)(C)C)c3Cl)c2n1	160 to 162
CCOC(=O)C(C#N)=C(Nc1ccc(N(CC)CC)cc1)SC	100
CCc1ccc2c(c1)C=Cc1ccccc1C2c1cn(Cc2ccc(C(=O)O)o2)c(=O)[nH]c1=O (stereo not given)	178 to 180
CCCCCOc1c(OC)cc([N+](=O)[O-])c2nccc(C)c12	54 to 55
CC(=O)OCC1OC(n2c(Cl)nc3cc(Br)c(Br)cc32)C(OC(C)=O)C1OC(C)=O (stereo not given)	140 to 142
CCN(CC)CCNC(=O)c1cc(NS(C)(=O)=O)c(Cl)cc1OC	123 to 124
CC(=O)OC1C(OC(=O)c2ccc(N)cc2)C=C(C)C(=O)CC1(C)C (stereo not given)	158 to 160
N#CCCNC(=O)c1cccc(-c2ccc3ccn(-c4ccc(Cl)cc4Cl)c3n2)c1	215 to 216
COc1ccc(CN(C)CCCOc2ccc(NC(=O)c3cccc4c(=O)c5cccc(C)c5[nH]c34)c(C)c2)cc1OC	146
Clc1ccc(N2CCN(Cc3c[nH]c4ncccc34)CC2)nc1	196 to 198
N#CC(N)COc1ccccc1 (stereo not given)	65
